In patent publication US3984393A, “Aminoglycoside antibiotics” (The Upjohn Company, priority 1975, dated 1976):
Converted amounts (≈) assume the structure as drawn.

How the values were obtained:
B. subtilis UC 564 = assay: agar diffusion (standard agar disc plate) assay, B. subtilis UC 564; type: cell-based, Bacillus subtilis; design: unit: mm
Procedure: (§1) The novel intermediates, disclosed herein, are useful to make novel aminoglycoside antibiotics. These novel aminoglycoside antibiotics are antibacterially active, and, thus, they can be used in various environments to eradicate or control sensitive bacteria. Following are in vitro antibacterial test results for representative compounds of the subject invention. The results were obtained with a standard disc plate assay using 12.5 mm paper discs.
(§2) Compound (14β) was also tested against a series of bacteria on a standard agar disc plate assay, as described above.

P. mirabilis A-63 = assay: standard microplate test in BHI Agar (MIC), P. mirabilis A-63; type: cell-based; settings: Proteus mirabilis, A63, 20 h; P. mirabilis A-63; retest table, group (7β), (14β), neamine control; read-out: Minimum Inhibitory Concentration
Procedure: (§3) Compounds were also tested in a standard microplate test in Brain Heart Infusion (BHI) Agar, at a concentration of 1 mg/ml. Incubation is at 37° and end points are read at 20 hours. Brain Heart Infusion Agar (supplied by Difco Laboratories, Detroit, Michigan, U.S.A.) has the following composition:
(§4) Compounds (7β), (7α) and (9) were tested again along with compounds (11) and (14β) against a neamine control using the same conditions as given above.

S. aureus UC 76 [1] = assay: agar diffusion (standard agar disc plate) assay, S. aureus UC 76; type: cell-based, Staphylococcus aureus; design: unit not given here
Procedure: as §1, §2

S. hemolyticus UC 152 = assay: standard microplate test in BHI Agar (MIC), S. hemolyticus UC 152; type: cell-based, Streptococcus hemolyticus; settings: Streptococcus pyogenes, UC152, 20 h; S. hemolyticus UC 152; retest table, group (7β), (14β), neamine control; read-out: Minimum Inhibitory Concentration
Procedure: as §3, §4

E. coli UC 51 = assay: agar diffusion (standard agar disc plate) assay, E. coli UC 51; type: cell-based, Escherichia coli; design: unit not given here
Procedure: as §1, §2

Ps. aeruginosa UC 95 [2] = assay: standard microplate test in BHI Agar (MIC), Ps. aeruginosa UC 95; type: cell-based; settings: Pseudomonas aeruginosa, UC95, 20 h, Ps. aeruginosa UC 95; retest table, group (7β), (14β), neamine control; read-out: Minimum Inhibitory Concentration
Procedure: as §3, §4

S. flexneri UC 143 = assay: standard microplate test in BHI Agar (MIC), S. flexneri UC 143; type: cell-based; settings: Shigella flexneri, UC143, 20 h, retest table, group (7β), (14β), neamine control, read-out: Minimum Inhibitory Concentration
Procedure: as §3, §4

P. morgani UC 3186 = assay: standard microplate test in BHI Agar (MIC), P. morgani UC 3186; type: cell-based; settings: 20 h; P. morgani UC 3186; retest table, group (7β), (14β), neamine control; read-out: Minimum Inhibitory Concentration
Procedure: as §3, §4

B. cereus = assay: standard disc plate assay, 12.5 mm paper discs (zone of inhibition), B. cereus; type: cell-based, Bacillus cereus; settings: conclusion in words from the above results
From the text: as §1

D. pneumoniae UC 41 = assay: standard microplate test in BHI Agar (MIC), D. pneumoniae UC 41; type: cell-based; settings: Streptococcus pneumoniae, UC41, 20 h, D. pneumoniae UC 41; retest table, group (7β), (14β), neamine control; read-out: Minimum Inhibitory Concentration
Procedure: as §3, §4

P. rettgeri UC 339 = assay: standard microplate test in BHI Agar (MIC), P. rettgeri UC 339; type: cell-based; settings: Providencia rettgeri, UC339, 20 h; P. rettgeri UC 339; retest table, group (7β), (14β), neamine control; read-out: Minimum Inhibitory Concentration
Procedure: as §3, §4

B. subtilis = assay: standard disc plate assay, 12.5 mm paper discs (zone of inhibition), B. subtilis; type: cell-based, Bacillus subtilis; settings: conclusion in words from the above results
From the text: as §1

P. vulgaris UC 93 [3] = assay: standard microplate test in BHI Agar (MIC), P. vulgaris UC 93; type: cell-based; settings: Proteus vulgaris, UC93, 20 h, P. vulgaris UC 93; retest table, group (7β), (14β), neamine control; read-out: Minimum Inhibitory Concentration
Procedure: as §3, §4

S. typhi TG-3 = assay: standard microplate test in BHI Agar (MIC), S. typhi TG-3; type: cell-based; settings: Salmonella enterica, 20 h, read-out: Minimum Inhibitory Concentration
Procedure: as §3, §4

S. aureus UC 76 [4] = assay: standard microplate test in BHI Agar (MIC), S. aureus UC 76; type: cell-based, Staphylococcus aureus
Procedure: as §3, §4

S. marcescens UC 131 = assay: standard microplate test in BHI Agar (MIC), S. marcescens UC 131; type: cell-based; settings: Serratia marcescens, UC131, 20 h; S. marcescens UC 131; retest table, group (7β), (14β), neamine control; read-out: Minimum Inhibitory Concentration
Procedure: as §3, §4

E. coli UC 45 = assay: standard microplate test in BHI Agar (MIC), E. coli UC 45; type: cell-based; settings: Escherichia coli, UC45, 20 h, E. coli UC 45; retest table, group (7β), (14β), neamine control; read-out: Minimum Inhibitory Concentration
Procedure: as §3, §4

Ps. aeruginosa UC 95 [5] = assay: agar diffusion (standard agar disc plate) assay, Ps. aeruginosa UC 95; type: cell-based
Procedure: as §1, §2

K. pneumoniae UC 57 = assay: agar diffusion (standard agar disc plate) assay, K. pneumoniae UC 57; type: cell-based; design: unit: mm
Procedure: as §1, §2

K. pneumoniae UC 58 = assay: standard microplate test in BHI Agar (MIC), K. pneumoniae UC 58; type: cell-based; settings: Klebsiella pneumoniae, UC58, 20 h; K. pneumoniae UC 58; retest table, group (7β), (14β), neamine control; read-out: Minimum Inhibitory Concentration
Procedure: as §3, §4

St. faecalis UC 694 = assay: standard microplate test in BHI Agar (MIC), St. faecalis UC 694; type: cell-based; settings: Enterococcus faecalis, UC694, 20 h, S. faecalis UC 694; retest table, group (7β), (14β), neamine control; read-out: Minimum Inhibitory Concentration
Procedure: as §3, §4

S. lutea UC 130 = assay: agar diffusion (standard agar disc plate) assay, S. lutea UC 130; type: cell-based; design: unit: mm
Procedure: as §1, §2

P. vulgaris UC 93 [6] = assay: agar diffusion (standard agar disc plate) assay, p. vulgaris UC 93; type: cell-based; design: unit: mm
Procedure: as §1, §2

B. cereus UC 3145 = assay: agar diffusion (standard agar disc plate) assay, B. cereus UC 3145; type: cell-based, Bacillus cereus; design: unit: mm
Procedure: as §1, §2

NC[C@H]1O[C@H](O[C@H]2[C@H](O)[C@@H](O)[C@H](N)C[C@@H]2N)[C@H](N)[C@@H](O[C@@H]2O[C@H](CO)[C@@H](O)[C@H]2O)[C@@H]1O [Compound (14β), 3'-O-(β-D-Ribofuranosyl)neamine]
Agar Diffusion Assay (B. subtilis UC 564; Full Strength): 37
Agar Diffusion Assay (B. subtilis UC 564; dilution 1 : 2): 35.5
Agar Diffusion Assay (B. subtilis UC 564; dilution 1 : 4): 33
Agar Diffusion Assay (B. subtilis UC 564; dilution 1 : 8): 30.5
MIC (P. mirabilis A-63): 1000 µg/mL (≈ 2200 µM)
Agar Diffusion Assay (S. aureus UC 76 [1]; Full Strength): 25
Agar Diffusion Assay (S. aureus UC 76 [1]; dilution 1 : 2): 23
Agar Diffusion Assay (S. aureus UC 76 [1]; dilution 1 : 4): 21
Agar Diffusion Assay (S. aureus UC 76 [1]; dilution 1 : 8): 17.5
MIC (S. hemolyticus UC 152): 1000 µg/mL (≈ 2200 µM)
Agar Diffusion Assay (E. coli UC 51; Full Strength): 27
Agar Diffusion Assay (E. coli UC 51; dilution 1 : 2): 24.5
Agar Diffusion Assay (E. coli UC 51; dilution 1 : 4): 22
Agar Diffusion Assay (E. coli UC 51; dilution 1 : 8): 18
MIC (Ps. aeruginosa UC 95 [2]): 1000 µg/mL (≈ 2200 µM)
MIC (S. flexneri UC 143): 1000 µg/mL (≈ 2200 µM)
MIC (P. morgani UC 3186): 1000 µg/mL (≈ 2200 µM)
active against Bacillus cereus (B. cereus): active
MIC (D. pneumoniae UC 41): 1000 µg/mL (≈ 2200 µM)
MIC (P. rettgeri UC 339): 1000 µg/mL (≈ 2200 µM)
active against Bacillus subtilis (B. subtilis): active
MIC (P. vulgaris UC 93 [3]): 1000 µg/mL (≈ 2200 µM)
MIC (S. typhi TG-3): 1000 µg/mL (≈ 2200 µM)
MIC (S. aureus UC 76 [4]; Staphylococcus aureus, UC76, 20 h, S. aureus UC 76, retest table, group (7β), (14β), neamine control, read-out: Minimum Inhibitory Concentration): 1000 µg/mL (≈ 2200 µM)
active against Staphylococcus aureus (S. aureus UC 76 [4]; conclusion in words from the above results): active
MIC (S. marcescens UC 131): 1000 µg/mL (≈ 2200 µM)
MIC (E. coli UC 45): 1000 µg/mL (≈ 2200 µM)
Agar Diffusion Assay (Ps. aeruginosa UC 95 [5]; Full Strength): 20
Agar Diffusion Assay (Ps. aeruginosa UC 95 [5]; dilution 1 : 2): 17
Agar Diffusion Assay (Ps. aeruginosa UC 95 [5]; dilution 1 : 4): 14
Agar Diffusion Assay (K. pneumoniae UC 57; Full strength): 31
Agar Diffusion Assay (K. pneumoniae UC 57; dilution 1 : 2): 29
Agar Diffusion Assay (K. pneumoniae UC 57; dilution 1 : 4): 27
Agar Diffusion Assay (K. pneumoniae UC 57; dilution 1 : 8): 23
MIC (K. pneumoniae UC 58): 500 µg/mL (≈ 1100 µM)
MIC (St. faecalis UC 694): 1000 µg/mL (≈ 2200 µM)
Agar Diffusion Assay (S. lutea UC 130; Full strength): 25
Agar Diffusion Assay (S. lutea UC 130; dilution 1 : 2): 22.5
Agar Diffusion Assay (S. lutea UC 130; dilution 1 : 4): 19
Agar Diffusion Assay (S. lutea UC 130; dilution 1 : 8): 15
Agar Diffusion Assay (P. vulgaris UC 93 [6]; Full Strength): 26
Agar Diffusion Assay (P. vulgaris UC 93 [6]; dilution 1 : 2): 22
Agar Diffusion Assay (P. vulgaris UC 93 [6]; dilution 1 : 4): 19.5
Agar Diffusion Assay (P. vulgaris UC 93 [6]; dilution 1 : 8): 16
Agar Diffusion Assay (B. cereus UC 3145; Full Strength): 25.5
Agar Diffusion Assay (B. cereus UC 3145; dilution 1 : 2): 24
Agar Diffusion Assay (B. cereus UC 3145; dilution 1 : 4): 21
Agar Diffusion Assay (B. cereus UC 3145; dilution 1 : 8): 18
